Literature values, collected in patent US20240390359A1, “METHODS FOR THE TREATMENT AND PREVENTION OF NON-VIRAL TICK-BORNE DISEASES AND SYMPTOMS THEREOF” (priority 2023, published 2024).

Columns and labels:
Babesia = settings: mice; cited from earlier work
Pneumocystis = settings: mice; cited from earlier work
[1] = tested on: P. falciparum gametocytes; settings: single dose combined with dihydroartemisinin/piperaquine; cited from earlier work
Babesia microti = settings: Mongolian jirds; primaquine given daily; cited from earlier work
B. rodhaini [2] = settings: cited from earlier work
B. rodhaini [3] = settings: single dose of 20 mg/kg; immunocompromised SCID mice; cited from earlier work
B. gibsoni = settings: splenectomized dogs, cited from earlier work
[4] = tested on: blood stages of P. falciparum; settings: in vivo; cited from earlier work
[5] = cited from earlier work
[6] = 600 mg over three days then 200 mg weekly for up to one year; cited from earlier work
Plasmodium vivax = settings: monotherapy 400 mg/day for three days, cited from earlier work
Plasmodium falciparum = settings: 600 mg loading dose followed by 200 mg; challenge three days after last dose; all control subjects developed parasitemia; cited from earlier work
[7] = tested on: extracellular blood stage forms of Trypanosoma brucei; settings: cited from earlier work
[8] = tested on: intracellular amastigote forms of Leishmania major; settings: cited from earlier work
[9] = tested on: free-living gram-negative and gram-positive bacteria; settings: cited from earlier work
B. microti = settings: one patient, prior rituximab; tafenoquine as monotherapy for six weeks at approved malaria prevention dose; cited from earlier work
[10] = in vivo; cited from earlier work
[11] = cited from earlier work; remark: listed apart in the source
P. falciparum [12] = settings: 250 mg/day; cited from earlier work
P. falciparum [13] = settings: 250 mg/day; cited from earlier work; remark: listed apart in the source
Babesia parasites = settings: 100 microM for 2h, in vitro; cited from earlier work
[14] = tested on: Trypanosome brucei blood stage forms; settings: exposure for 90 minutes; cited from earlier work
[15] = tested on: Borrelia burgdoferi B31 5A18NP1 strain; settings: 4 h; cited from earlier work
Treponema palludum = settings: 50 or 100 microM for two hours in a 3% oxygen atmosphere; cited from earlier work
[16] = tested on: various serovars of Leptospira; settings: exposure for as little as 30 min; cited from earlier work

COc1cc(NC(C)CCCN)c2ncccc2c1 (centres unmarked) [primaquine]
single dose that cleared Babesia parasitemia (Babesia): 100 mg/kg | cure of Pneumocystis infections (Pneumocystis): must be combined with clindamycin | time until gametocyte infectivity statistically lower than reference values [1]: two days post-dosing

COc1cc(NC(C)CCCN)c2nccc(C)c2c1 (centres unmarked) [4-methyl substituted primaquine]
efficacy against Babesia microti (Babesia microti): more efficacious than primaquine

COc1cc(C)c2c(Oc3cccc(C(F)(F)F)c3)c(OC)cc(NC(C)CCCN)c2n1 (centres unmarked) [tafenoquine, N (4)-[2,6-Dimethoxy-4-methyl-5-[3-(trifluoromethyl)phenoxy]quinolin-8-yl] pentane-1,4-diamine]
single dose that cleared Babesia parasitemia (Babesia): 20 mg/kg | formation of vacuoles in B. rodhaini blood stages (B. rodhaini [2]; single dose of 20 mg/kg in mice): induces the formation of large vacuoles | parasitemia (B. rodhaini [2]; single dose of 20 mg/kg, Balb/c mice): cleared parasitemia | survival (B. rodhaini [2]; single dose of 20 mg/kg, Balb/c mice, infection uniformly lethal in untreated animals): 100% | antioxidant enzymes in B. rodhaini (B. rodhaini [2]; single dose treatment in mice): upregulated | death (B. rodhaini [3]): delayed not prevent | parasitemia (B. gibsoni; 100 mg tablet (9-11.5 mg/kg) on Days 12, 19 and 48): sufficient to clear and cure | symptoms of infections such as anorexia, elevated respiration and pulse (B. gibsoni): alleviated | activity against the blood stages of P. falciparum [4]: quite effective | effect on QTC prolongation associated with chloroquine ([5]; coadministered with chloroquine): did not increase the QTC prolongation | effect on QTC interval ([5]; doses of up to 1200 mg over three days): not found to increase the upper limit of 90% confidence interval of the QTC interval | overall rate of adverse events relative to placebo [6]: without increasing the overall rate of adverse events | specific adverse events with increased risk [6]: gastrointestinal effects [mild to moderate] and cornea verticillata | day by which all patients cleared blood stage parasites (Plasmodium vivax): ≤ 8 days | relapses during the follow up period (Plasmodium vivax; patients with data available): no relapses | development of blood stage parasitemia after challenge (Plasmodium falciparum): none of the tafenoquine subjects did | potency of killing [7]: < 4 µM | potency of killing [8]: < 4 µM | activity against gram-negative versus gram-positive bacteria [9]: much less active against free-living gram-negative bacteria than free-living gram-positive bacteria | clinical outcome of babesiosis treatment (B. microti): the patient was cured | half-life [10]: 14 days | doses that may not be well tolerated ([11]; G6PD deficient subjects): ≥ 300 mg | doses that may be well tolerated ([11]; G6PD normal adult subjects): up to 400 mg | doses often not well tolerated ([11]; adult subjects regardless of G6PD status): above 400 mg

CC[C@H]1OC(=O)[C@H](C)[C@@H](O[C@H]2C[C@@](C)(OC)[C@@H](O)[C@H](C)O2)[C@H](C)[C@@H](O[C@@H]2O[C@H](C)C[C@H](N(C)C)[C@H]2O)[C@](C)(O)C[C@@H](C)CN(C)[C@H](C)[C@@H](O)[C@]1(C)O [Azithromycin]
Protective Efficacy (%) Relative to Placebo, Pf/Semi-Immune (P. falciparum [12]): 83% (Anderson) | Protective Efficacy (%) Relative to Placebo, PF/Non-immune or Malaria-naïve (P. falciparum [13]): 72% (Taylor)

OO [hydrogen peroxide]
killing of Babesia parasites (Babesia parasites): kills Babesia parasites in vitro | hydrogen peroxide concentration that killed blood stage forms [14]: approximately 140 microM | lowest concentration that inhibited growth [15]: 62.5 µM | growth (Treponema palludum): significantly inhibited | exogenous hydrogen peroxide concentrations that killed [16]: < 180 µM
